From publication PMC13227277, “Targeting CIRP and IL-6R-mediated microglial inflammation to improve outcomes in intracerebral hemorrhage” (Journal of Advanced Research, 2025)
Read-outs that look alike come from different tables or passages of the source. No end group written: not given here.

Assays:
microglia [1] = test: CCK-8 microglial viability; assay type: cell-based, mouse
Description: (§1) Primary cortical neurons were isolated from embryonic day 16–18 (E16–E18) C57BL/6 mouse embryos as previously described, and cultured in Neurobasal medium supplemented with B27 and GlutaMAX (Gibco).Primary microglial cells were isolated from the cortices of neonatal (day 1) C57BL/6J mice. After disinfection with 75 % ethanol, the skin and skull were removed, and the brains were placed in ice-cold HBSS. The meninges were peeled off, the cortex was collected, and the hippocampus was discarded. Tissues were digested with 0.25 % trypsin at 37 °C for 12 min, centrifuged at 1200 rpm for 5 min, and resuspended in complete medium. The suspension was transferred to a T75 flask with 15 mL of complete medium. After 14 days, microglial cells were harvested by shaking the flask at 270–280 rpm for 30 min, and the supernatant was collected. To induce phenotyping, microglial cells were treated with LPS (100 ng/mL) and IFN-γ (20 ng/mL) for 48 h to induce the M1 phenotype, or IL-4 (20 ng/mL) for 48 h to induce the M2 phenotype. […]
Microglia were exposed to 1, 10 100 μM concentrations of TCC or TC and PBS respectively for 24 h, and cell viability was measured. […] Cell viability was assessed using the Cell Counting Kit-8 (C0038, Beyotime) according to the manufacturer’s protocol. Absorbance at 450 nm was measured to determine cell viability.

[2] = in the brain following ICH, increased BBB permeability
microglia [3] = test: IL-6 release from CIRP-stimulated microglia, ELISA (TCC vs TC); assay type: cell-based, mouse; settings: peptides 10 μM pre-treated 0.5 h, then rmCIRP 1 μg/mL 24 h, n = 3
Description: To validate the effects of TCC and TC in vitro, microglial cells were pre-treated with the peptides (10 μM) for 0.5 h, followed by stimulation with recombinant mouse CIRP (rmCIRP, 1 μg/mL) for 24 h to establish an inflammation model.
ELISA was used to quantify CIRP, MD2, IL-6, and TNF-α concentrations in blood and cerebrospinal fluid samples. Samples were processed and stored under standardized conditions to preserve protein integrity. Each target protein was measured using commercial ELISA kits, following the manufacturer’s instructions: Mouse CIRBP ELISA Kit (CSB-EL005440MO, CUSABIO), Mouse TNF-α ELISA Kit (EK282, Lianke Bio), Mouse IL-6 ELISA Kit (CSB-E04639m, CUSABIO), and Rat TNF-α ELISA Kit (EK382, Lianke Bio).
After disinfection with 75 % ethanol, the skin and skull were removed, and the brains were placed in ice-cold HBSS. The meninges were peeled off, the cortex was collected, and the hippocampus was discarded. Tissues were digested with 0.25 % trypsin at 37 °C for 12 min, centrifuged at 1200 rpm for 5 min, and resuspended in complete medium. The suspension was transferred to a T75 flask with 15 mL of complete medium. After 14 days, microglial cells were harvested by shaking the flask at 270–280 rpm for 30 min, and the supernatant was collected. […] CIRP (1 μg/mL for 24 h) was added to the microglia, which were divided into PBS, CIRP, and CIRP + TCC groups. […]

microglia [4] = test: Microglial phagocytosis of CFSE-labeled RBCs; assay type: cell-based, mouse; settings: rmCIRP 24 h, then CFSE-labeled erythrocytes
Description: as §1, with “collected.” for “collected. To induce phenotyping, microglial cells were treated with LPS (100 ng/mL) and IFN-γ (20 ng/mL) for 48 h to induce the M1 phenotype, or IL-4 (20 ng/mL) for 48 h to induce the M2 phenotype.”
The functional characteristics of microglial cells encompass not only the release of inflammatory cytokines but also their phagocytic activity. […] RBCs were labeled with either 0.5 μM or 5 μM CFSE, and immunofluorescence analysis determined that 5 μM CFSE was the optimal concentration for labeling (Fig. 7G). […]
RBCs were isolated via density gradient centrifugation and labeled with CFSE before being stereotactically injected into the right striatum. […] Cell viability was assessed using a Fixable Viability Dye, and flow cytometric analysis was subsequently performed. […]

[5] = target: T1, recombinant human IL-6 receptor alpha (IL-6Rα) (human, UniProt P08887 20-365); test: SPR; human IL-6Rα immobilised on a CM5 chip; human CIRBP or TCC as analyte; settings: both partners purified
T1 construct: Interleukin-6 receptor subunit alpha, human; UniProtKB P08887 is printed for the docking; also called rhIL-6Rα; rhIL-6R; source: recombinant
T1 sequence (looked up): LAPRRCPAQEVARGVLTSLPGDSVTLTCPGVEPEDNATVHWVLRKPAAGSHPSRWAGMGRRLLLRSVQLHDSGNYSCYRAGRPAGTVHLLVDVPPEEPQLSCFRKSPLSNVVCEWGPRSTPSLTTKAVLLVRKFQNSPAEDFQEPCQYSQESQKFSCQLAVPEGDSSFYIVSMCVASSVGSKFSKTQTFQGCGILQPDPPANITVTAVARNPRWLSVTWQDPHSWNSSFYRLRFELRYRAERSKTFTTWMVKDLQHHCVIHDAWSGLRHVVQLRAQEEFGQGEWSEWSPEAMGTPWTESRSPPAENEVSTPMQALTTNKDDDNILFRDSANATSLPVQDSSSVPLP

Molecule: YGRKKRRQRRRGRGFSRGGGDRGYGGKFERQKILDQRFFE [TCC]
- microglial viability (microglia [1]; 10 μM, 24 h, CCK-8, n = 3): did not affect microglial viability
- ability to cross the BBB [2]: effectively traverse the BBB

Molecule: YGRKKRRQRRRRFESRSGGYGGSRD [TC]
- microglial viability (microglia [1]): did not affect microglial viability
- IL-6 release in culture supernatants (microglia [3]): reduced IL-6 release

B1: rmCIRP: recombinant mouse CIRP (rmCIRP, 1 μg/mL) (protein, UniProt P60824 1-172, looked up)
Cold-inducible RNA-binding …: MASDEGKLFVGGLSFDTNEQALEQVFSKYGQISEVVVVKDRETQRSRGFGFVTFENIDDAKDAMMAMNGKSVDGRQIRVDQAGKSSDNRSRGYRGGSAGGRGFFRGGRSRGRGFSRGGGDRGYGGGRFESRSGGYGGSRDYYASRSQGGSYGYRSSGGSYRDSYDSYATHNE
- phagocytosis of RBCs, Cirbp^−/− vs WT microglia (microglia [4]): greater capacity to phagocytize CFSE-labeled erythrocytes compared to WT microglia

B2: Tat-CIRP-CMA peptide (peptide)
peptide: YGRKKRRQRRRGRGFSRGGGDRGYGGKFERQKILDQRFFE
notes: also called TCC; source: synthetic peptide (Heifei KS-V Peptide Biotechnology, China)
- Kd [5]: 4.12 nM
